# Where “and” joins values, the source holds several entries; their conditions need not be identical. Equal entries are not always repeated.
# Columns and labels:
# myelofibrosis [1] = test: SIMPLIFY-2 Phase 3 trial: splenic response rate (SRR); assay type: in vivo, human; settings: for SRR Absolute risk difference (Newcombe 95% CI): MMB vs Control
# Source text: In the SIMPLIFY-2 trial (NCT02101268), the efficacy and safety of MMB was studied in anemic or thrombocytopenic subjects with myelofibrosis who were previously treated with ruxolitinib (RUX). […] Specifically, anemic or thrombocytopenic myelofibrosis patients who had and were previously treated with (RUX) (for at least 28 days) were studied over 24 weeks for response to MMB versus best available treatment (BAT), primarily RUX (89% of patients) but alternatively no treatment or other standard interventions, after which period all patients could receive extended MMB treatment. Previously treated RUX patients who either required red blood cell transfusions or RUX dose reduction with grade 3 thrombocytopenia, anemia, and/or bleeding at grade 3 or worse, with palpable spleen of at least 5 cm and without grade 2 or greater peripheral neuropathy were included in the trial. There was no lower limit for the required baseline platelet count. The primary endpoint was a reduction by at least 35% in the spleen volume at 24 weeks compared with baseline.
# FIG. 8A: SIMPLIFY-1 study of MMB in a first line population previously untreated with JAKi. For SIMPLIFY-1, the goal was non-inferiority over ruxolitinib (RUX) (MMB: N=215 subjects, and RUX: N=217 subjects). FIG. 8B: SIMPLIFY-2 study of second line population of anemic or thrombocytopenic subjects previously treated with RUX (red blood cell (RBC) transfusions on RUX=64%. RUX dose adjustment for: thrombocytopenia=21%; anemia/hematoma=35%). For SIMPLIFY-2, the goal was superiority over best available treatment (BAT) (MMB: N=104 subjects, and BAT: N=52 subjects). In both SIMPLIFY-1 and SIMPLIFY: Primary endpoint: >=35% reduction in spleen volume at 24 weeks. Secondary endpoints: Total symptom score (TSS) response at 24 weeks. Effects on RBC transfusion requirements.
# The SIMPLIFY 2 clinical trial data was reanalyzed for subgroups of subjects having particular baseline platelet counts in the MMB versus BAT arms of the study.
# Patient data was analyzed according to the following baseline platelet count (PLT) subgroups and in particular according to a threshold PLT of 150×10^9/L: 1) PLT<50×10^9/L; 2) 50×10^9/L≤PLT<100×10^9/L; 3) 100×10^9/L≤PLT<150×10^9/L. The reanalyzed data is presented in Table 14 (SIMPLIFY 2).
# myelofibrosis [2] = test: Translational biology Phase 2 study (GS-US-352-1672) in transfusion dependent MF patients; assay type: in vivo, human
# Source text: In a translational biology study, we determined the impact of momelotinib on plasma hepcidin, markers of iron storage and availability, erythropoiesis, and inflammation to explore mechanisms of the favorable effects of momelotinib on MF-associated anemia and transfusion independence. See Oh et al. “Hepcidin Suppression by Momelotinib Is Associated With Increased Iron Availability and Erythropoiesis in Transfusion-Dependent Myelofibrosis Patients”, Abstract #4282: Presented at ASH 60th Annual Meeting & Exposition: Dec. 1-4, 2018, San Diego, Calif., the disclosure of which is herein incorporated by reference.
# Population: Primary MF (PMF), post-polycythemia vera MF (post-PV MF), or post-essential thrombocythemia MF (post-ET MF). Requiring MF therapy (in the opinion of the investigator). High risk or intermediate-2 (DIPSS). Transfusion Dependent (TD) at baseline. [defined as ≥4 U red blood cell (RBC) transfusion in the 8 weeks prior to the first dose of MMB]. Goal: Exploratory translational biology study (MMB: N=41 subjects). Objectives: Primary objective: determine the transfusion independence response rate (TI; ≥12 week & ≥8 week) for TD subjects with MF treated with momelotinib. Secondary objectives: Evaluate baseline levels and changes in markers of iron metabolism; Assess inhibition of JAK1/2; Evaluate momelotinib pharmacokinetics in transfusion-dependent subjects with MF; and Evaluate changes in circulating cytokine and inflammatory markers.
smiles,measurement,setting,value
"Cl.N#CCNC(=O)c1ccc(-c2ccnc(Nc3ccc(N4CCOCC4)cc3)n2)cc1 [MMB, N-(cyanomethyl)-4-(2-(4-morpholinophenylamino)pyrimidin-4-yl)benzamide]",SRR Responders,myelofibrosis [1]; 50 ≤ PLT < 100 ×10^9/L,1
same,SRR proportion (Wilson 95% CI),myelofibrosis [1]; 50 ≤ PLT < 100 ×10^9/L,0.03
same,SRR Absolute risk difference (Newcombe 95% CI),myelofibrosis [1]; 50 ≤ PLT < 100 ×10^9/L,−0.02
same,SRR Responders,myelofibrosis [1]; 100 ≤ PLT < 150 ×10^9/L,3
same,SRR proportion (Wilson 95% CI),myelofibrosis [1]; 100 ≤ PLT < 150 ×10^9/L,0.13
same,SRR Absolute risk difference (Newcombe 95% CI),myelofibrosis [1]; 100 ≤ PLT < 150 ×10^9/L,0.03
same,SRR Responders,myelofibrosis [1]; ITT,7
same,SRR proportion (Wilson 95% CI),myelofibrosis [1]; ITT,0.07
same,SRR Absolute risk difference (Newcombe 95% CI),myelofibrosis [1]; ITT,0.01
same,SRR Responders,myelofibrosis [1]; PLT < 50 ×10^9/L,0
same,SRR proportion (Wilson 95% CI),myelofibrosis [1]; PLT < 50 ×10^9/L,0.00
same,≥8 week transfusion independence rate,"myelofibrosis [2]; Phase 2 GS-US-352-1672, TD subjects, N=41",39.0%
same,≥12 week transfusion independence rate,"myelofibrosis [2]; Phase 2 GS-US-352-1672, TD subjects, N=41, listed as momelotinib",34% and 34.1%
same,time to increased serum iron and transferrin,"myelofibrosis [2]; after momelotinib treatment initiation, FIG. 13",≤ 2 weeks
same,TI-NR patients with decreased transfusion burden (≥50%),"myelofibrosis [2]; any 8 week period, units of RBC, ≥2 unit decrease",77.8%
same,effect on hepcidin,"myelofibrosis [2]; post-MMB administration, FIG. 11",consistently decreased hepcidin

# — US11963962B2, “Platelet count-agnostic methods of treating myelofibrosis” (Sierra Oncology, Inc., priority 2018, dated 2024)
